Series [1] relates to GP probe cleaving activity in plasma. Nature of the series: GP cleavage in mouse plasma in the presence of cpd60 and/or KYP. It counts as biochemical, mice. As to the method:
(§1) Mouse plasma samples were prepared in K3-EDTA MiniCollect tubes (Greiner Bio-One, 450475) and frozen immediately at −80° C. prior to analysis. Human serum samples were obtained from healthy donors or purchased from Discovery Life Sciences, Inc. (Los Osos, Calif.).
(§2) Peptides of the region flanking the C-terminal human FGF21 cleavage site (VGPSQG) or a variant with D-alanine at P2 (VaPSQG) were synthesized (Anaspec, Inc.), containing an amine-terminal donor (HyLite Fluor 488 or Cy5.5 for aP NIRF) and a dark quencher-acceptor (QXL 520 or QSY21 for aP NIRF) conjugated to a supplementary C-terminal lysine. ANPFAP (Bioconjugate Chem 23:1704-11) and aP NIRF were synthesized by CPC Scientific (Sunnyvale, Calif.). Assays were conducted at 37° C. in 50 mM HEPES (pH 7.2), 150 mM NaCl, 1 mM EDTA, 0.1 mg/ml BSA. The excitation/emission wavelengths of cleaved peptide are 490/520 nm or 675/695 nm for ANPFAP and aP NIRF. Fluorescence was monitored on a Tecan M1000 Pro plate reader in kinetic mode. Except where indicated otherwise, measurements of serum or plasma FAP activity were performed with the peptide substrate concentration at 6 μM and a 10-fold dilution of serum or plasma in assay buffer.

The next series concerns the target T1, circulating FAP activity (Mus musculus, UniProt P97321).
T1 construct: the extracellular domain encoding the active enzyme can be shed from the cell surface; from tissue; host or cells: mouse plasma (C57BL/6 background; Fap +/+, +/-, -/-)
T1 sequence (P97321 24-761 limits assumed): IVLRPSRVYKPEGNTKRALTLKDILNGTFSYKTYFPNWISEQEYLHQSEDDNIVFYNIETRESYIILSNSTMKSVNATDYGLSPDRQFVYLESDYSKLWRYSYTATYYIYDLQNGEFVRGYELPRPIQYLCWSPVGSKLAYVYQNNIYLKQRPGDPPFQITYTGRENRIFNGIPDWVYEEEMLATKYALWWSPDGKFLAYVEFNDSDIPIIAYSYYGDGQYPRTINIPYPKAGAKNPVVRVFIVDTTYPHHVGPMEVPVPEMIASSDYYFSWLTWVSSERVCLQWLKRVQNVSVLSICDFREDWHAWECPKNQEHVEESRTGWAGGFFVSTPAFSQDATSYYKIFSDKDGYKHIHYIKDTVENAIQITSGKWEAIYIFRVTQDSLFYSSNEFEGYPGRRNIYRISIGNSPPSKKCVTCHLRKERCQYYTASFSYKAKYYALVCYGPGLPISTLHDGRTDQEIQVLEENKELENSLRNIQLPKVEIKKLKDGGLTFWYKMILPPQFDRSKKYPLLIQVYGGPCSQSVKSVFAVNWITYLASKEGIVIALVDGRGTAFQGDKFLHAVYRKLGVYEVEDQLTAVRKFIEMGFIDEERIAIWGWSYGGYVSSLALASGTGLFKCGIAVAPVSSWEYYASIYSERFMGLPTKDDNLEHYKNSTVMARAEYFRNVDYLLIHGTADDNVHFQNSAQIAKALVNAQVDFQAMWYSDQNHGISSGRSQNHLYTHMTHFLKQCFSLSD
Put plainly: In vivo pharmacological FAP inhibition: mice fed chow with cpd60, plasma FAP activity by aP peptide. The following applies: chow with 100 ppm cpd60 ad libitum, day 4 and 7. The protocol:
Mice were maintained in a pathogen-free animal facility at 21° C. under standard 12 h light/12 h dark cycle with access to normal chow (Labdiet 5010) and water ad libitum unless otherwise indicated. Generation of Fap KO mice was described previously (Dunshee, et al. (2016) J Biol Chem 291:5986-96).
as §1
as §2, with “Except where indicated otherwise, measurements of serum or plasma FAP activity were performed with the peptide substrate concentration at 6 μM and a 10-fold dilution of serum or plasma in assay buffer.” left out

The next series relates to FAP-related activity. The following applies: cynomolgus monkeys, cited from earlier work.
For a further series, the target named is T2, tissue FAP activity (Mus musculus, UniProt P97321).
T2 construct: from tissue
T2 sequence (P97321 1-761): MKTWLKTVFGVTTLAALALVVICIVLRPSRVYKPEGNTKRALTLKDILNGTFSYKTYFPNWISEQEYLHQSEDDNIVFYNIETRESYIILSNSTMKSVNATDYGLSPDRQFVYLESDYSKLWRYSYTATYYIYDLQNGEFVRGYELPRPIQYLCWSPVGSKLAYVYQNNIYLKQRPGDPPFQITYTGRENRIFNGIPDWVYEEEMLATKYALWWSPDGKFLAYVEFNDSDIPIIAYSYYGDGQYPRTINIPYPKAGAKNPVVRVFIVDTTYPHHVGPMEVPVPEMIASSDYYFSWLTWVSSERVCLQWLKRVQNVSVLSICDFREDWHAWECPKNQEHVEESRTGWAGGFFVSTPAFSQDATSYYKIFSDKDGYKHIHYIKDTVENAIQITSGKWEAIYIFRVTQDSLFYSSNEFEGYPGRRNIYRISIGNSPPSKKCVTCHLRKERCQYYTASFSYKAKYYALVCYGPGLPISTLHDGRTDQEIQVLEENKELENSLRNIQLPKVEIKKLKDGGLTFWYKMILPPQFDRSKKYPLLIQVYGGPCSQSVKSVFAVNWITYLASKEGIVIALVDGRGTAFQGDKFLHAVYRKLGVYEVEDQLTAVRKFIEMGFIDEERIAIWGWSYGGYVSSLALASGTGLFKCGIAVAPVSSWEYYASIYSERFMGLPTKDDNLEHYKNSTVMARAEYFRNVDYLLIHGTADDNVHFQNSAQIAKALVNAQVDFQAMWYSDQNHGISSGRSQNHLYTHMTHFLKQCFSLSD
Nature of the series: Ex vivo NIRF imaging of pancreata after i.v. probe in KPP and healthy C57BL/6 mice. The source says:
The utility of the VaPSQG-NIRF probe for imaging of tissue FAP activity was studied in a genetically engineered mouse model of pancreatic cancer, KrasLSL.G12D/wt;p16/p19fl/fl;Pdx1. Cre, or “KPP” for short (Singh, M. et al. Nat. Biotechnol. 28:585-593 (2010); Aguirre, A. J. et al. Genes Dev. 17:3112-26 (2003)). […] The VaPSQG-NIRF probe was synthesized by CPC Scientific (Sunnyvale, Calif.).
Prior to the imaging study, three KPP mice (9.3 weeks old) with varying tumor volumes were selected based on an in vivo ultrasound scan. Additionally, three healthy C57BL/6 mice (8.3 weeks old) were also studied as controls. One nmol VaPSQG-NIRF probe diluted in 150 microL of PBS was intravenously administered to each mouse via tail vein under anesthesia. […] After 4 hours, the mice were euthanized and pancreas tissues were dissected. The dissected tissues were rinsed with PBS, dried with tissue paper, and put on black paper for ex vivo NIRF imaging. Near infrared images are acquired using a CCD camera (Pearl Trilogy, Li-cor).

The next series addresses T3, recombinant human FAP (Homo sapiens, UniProt Q12884).
T3 construct: (residues L26-D760 and L26-D761, respectively); octa-His (N); made in house; host or cells: transiently transfected CHO cells (conditioned media)
T3 sequence (Q12884 26-760): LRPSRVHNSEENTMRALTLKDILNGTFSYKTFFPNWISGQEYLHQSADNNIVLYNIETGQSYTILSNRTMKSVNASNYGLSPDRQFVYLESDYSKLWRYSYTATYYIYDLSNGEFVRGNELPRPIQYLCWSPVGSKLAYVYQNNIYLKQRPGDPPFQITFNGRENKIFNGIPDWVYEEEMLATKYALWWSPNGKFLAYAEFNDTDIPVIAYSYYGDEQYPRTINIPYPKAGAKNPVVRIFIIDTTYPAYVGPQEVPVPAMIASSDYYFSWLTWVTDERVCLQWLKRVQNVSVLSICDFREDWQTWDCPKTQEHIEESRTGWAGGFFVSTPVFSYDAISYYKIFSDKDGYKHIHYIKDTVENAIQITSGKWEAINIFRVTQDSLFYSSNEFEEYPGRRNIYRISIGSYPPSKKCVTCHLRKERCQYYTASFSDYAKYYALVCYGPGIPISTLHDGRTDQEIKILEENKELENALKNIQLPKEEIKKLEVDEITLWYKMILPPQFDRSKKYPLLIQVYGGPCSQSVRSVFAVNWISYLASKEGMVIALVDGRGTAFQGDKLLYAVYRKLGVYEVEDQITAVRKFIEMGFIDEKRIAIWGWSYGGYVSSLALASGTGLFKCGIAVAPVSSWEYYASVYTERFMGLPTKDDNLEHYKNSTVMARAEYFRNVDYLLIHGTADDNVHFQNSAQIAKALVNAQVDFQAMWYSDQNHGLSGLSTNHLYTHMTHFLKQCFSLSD
Put plainly: FRET-quench assay: probe cleavage by recombinant human FAP. Type of series: biochemical. The note with it: 10 nM enzyme.
Description: (§3) Human prolyl oligopeptidase (PREP, 4308-SE), DPPIV (1180-SE), DPP9 (5419-SE), and DPPII/DPP7 (3438-SE) proteins were purchased from R&D Systems. Human DPP8 (BML-SE527) protein was purchased from Enzo Life Sciences. N-terminal octa-His-tagged human and mouse FAP proteins containing the extracellular domain (residues L26-D760 and L26-D761, respectively) were purified from the conditioned media of transiently-transfected CHO cells, by immobilized metal affinity chromatography (IMAC), followed by size exclusion chromatography (SEC).
as §2

For another series, the target named is T4, recombinant human PREP (Homo sapiens, UniProt P48147).
T4 construct: purchased R&D Systems 4308-SE
T4 sequence (P48147 1-710): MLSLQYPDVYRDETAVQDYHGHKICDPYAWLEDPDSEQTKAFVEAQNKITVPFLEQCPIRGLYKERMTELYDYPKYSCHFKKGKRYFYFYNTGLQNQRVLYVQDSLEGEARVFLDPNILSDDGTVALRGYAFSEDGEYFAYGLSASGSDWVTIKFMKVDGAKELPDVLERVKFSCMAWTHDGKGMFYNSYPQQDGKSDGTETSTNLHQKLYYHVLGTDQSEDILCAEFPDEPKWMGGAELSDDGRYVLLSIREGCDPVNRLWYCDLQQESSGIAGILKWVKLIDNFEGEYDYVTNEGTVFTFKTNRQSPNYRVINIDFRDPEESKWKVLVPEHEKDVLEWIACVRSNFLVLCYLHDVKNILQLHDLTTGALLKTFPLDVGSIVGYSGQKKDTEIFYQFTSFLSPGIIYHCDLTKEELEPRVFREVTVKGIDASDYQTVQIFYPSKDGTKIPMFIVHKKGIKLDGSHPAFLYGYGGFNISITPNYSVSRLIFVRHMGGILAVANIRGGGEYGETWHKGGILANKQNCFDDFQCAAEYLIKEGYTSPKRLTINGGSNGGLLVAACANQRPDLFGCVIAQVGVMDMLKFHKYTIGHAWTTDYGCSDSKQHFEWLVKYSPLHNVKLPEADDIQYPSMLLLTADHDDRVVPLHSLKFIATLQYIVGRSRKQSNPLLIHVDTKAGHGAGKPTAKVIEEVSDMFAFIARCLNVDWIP
Put plainly: FRET-quench assay: probe cleavage by recombinant human PREP. Type of series: biochemical. The following applies: 10 nM enzyme.
Description: as §3, §2

Entries after “also recorded” stand apart in the source; their conditions may differ.

With `N#C[C@@H]1CC(F)(F)CN1C(=O)CNC(=O)c1ccnc2ccccc12` [cpd60], in series [1] (WT or heterozygous plasma), the “sensitivity of GP probe activity to the inhibitor” value is “clearly sensitive”. Also, the “suppression of circulating (plasma) FAP activity” value on circulating FAP activity was “completely suppress; also recorded: undetectable levels; also recorded: completely suppressed”. Further, the “change in FAP-related activity” value with FAP-related activity (bolus p.o.) is recorded as “transient decrease”. Moreover, the clearance from circulation result with FAP-related activity was “rapid clearance”.
On to “aP NIRF: identical to aP, but the FRET donor and quencher replaced with Cy5.5 and QSY21”, for which the “relative fluorescence intensities normalized to imaging area, KPP versus healthy control pancreata” value with tissue FAP activity (4 hours after 1 nmol i.v., P<0.05) is on record as “much greater fluorescence”. Besides, the “ex vivo imaging fluorescent signal of pancreata” value in the series with tissue FAP activity (KPP group, 4 hours after 1 nmol i.v.) is given as “strong fluorescent signal”. The treatment-related adverse effect entry in the series with tissue FAP activity (mice, 1 nmol i.v. via tail vein, until euthanasia after 4 hours) is “No treatment-related adverse effect was observed”. In the series with recombinant human FAP, the “cleavage by recombinant human FAP” value is given as “efficiently cleaves”. The “cleavage by recombinant human PREP” value with recombinant human PREP is on record as “not”.
Regarding `N#C[C@@H]1CCCN1C(=O)[C@@H]1CCCN1C(=O)CCCc1ccccc1` [KYP-2047], the “sensitivity of residual GP probe cleaving activity to the inhibitor” value in series [1] (Fap KO plasma) was “sensitive”.
